Measurements from PubChem BioAssay (NCI).
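Tested at 5 concentrations; 48 h exposure; 96-well plates; endpoints linearly interpolated, else capped at highest concentration. The concentration for 50% growth inhibition is given as GI50. TGI: concentration producing complete growth inhibition.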

What was measured:
Test in all cases: inhibition of tumour cell growth, NCI panel, 48 h
[1] = test system: SF-268 CNS
[2] = test system: SNB-75 CNS
[3] = test system: SK-MEL-5 melanoma
[4] = test system: 786-0 renal
[5] = test system: BT-549 breast
[6] = test system: ACHN renal
[7] = test system: EKVX NSCLC
[8] = test system: K-562 leukemia
[9] = test system: SK-MEL-28 melanoma
[10] = test system: SN12C renal
[11] = test system: NCI-H522 lung
[12] = test system: OVCAR-3 ovarian
[13] = test system: MOLT-4 leukemia
[14] = test system: SF-295 CNS
[15] = test system: DU-145 prostate
[16] = test system: NCI/ADR-RES ovarian
[17] = test system: SNB-19 CNS
[18] = test system: CCRF-CEM leukemia
[19] = test system: SK-MEL-2 melanoma
[20] = test system: IGROV1 ovarian
[21] = test system: NCI-H226 lung
[22] = test system: RPMI-8226 leukemia
[23] = test system: HL-60(TB) leukemia
[24] = test system: PC-3 prostate
[25] = test system: OVCAR-8 ovarian
[26] = test system: COLO 205 colon
[27] = test system: OVCAR-5 ovarian
[28] = test system: HOP-62 NSCLC
[29] = test system: KM12 colon
[30] = test system: MDA-MB-435
[31] = test system: SK-OV-3 ovarian
[32] = test system: OVCAR-4 ovarian
[33] = test system: MALME-3M melanoma
[34] = test system: MCF7 breast
[35] = test system: UACC-257 melanoma
[36] = test system: TK-10 renal
[37] = test system: UO-31 renal
[38] = test system: SF-539 CNS
[39] = test system: HCT-116 colon
[40] = test system: M14 melanoma
[41] = test system: HS 578T breast
[42] = test system: CAKI-1 renal
[43] = test system: U251 CNS
[44] = test system: LOX IMVI melanoma
[45] = test system: HOP-92 NSCLC
[46] = test system: A549 NSCLC
[47] = test system: HCT-15 colon
[48] = test system: NCI-H23 lung
[49] = test system: A498 renal
[50] = test system: T-47D breast
[51] = test system: HCC-2998 colon
[52] = test system: HT29 colon
[53] = test system: NCI-H460 lung
[54] = test system: RXF 393 renal
[55] = test system: MDA-MB-231 breast
[56] = test system: SW-620 colon

## COc1cc2c3c(n(CCN(C)C)c(=O)c2cc1OC)-c1cc2c(cc1C3=O)OCO2
[1]
  GI50: 0.677 µM
  TGI: > 100 µM
[2]
  GI50: 8.22 µM
  TGI: > 100 µM
[3]
  GI50: 1.21 µM
  TGI: 22.1 µM
[4]
  TGI: > 100 µM
[5]
  GI50: > 47.7 µM
  TGI: > 100 µM
[6]
  TGI: > 100 µM
[7]
  GI50: 37 µM
  TGI: > 100 µM
[8]
  GI50: 2.53 µM
  TGI: 97.4 µM
[9]
  GI50: > 28.4 µM
  TGI: > 100 µM
[10]
  GI50: 4.38 µM
  TGI: > 100 µM
[11]
  GI50: 2.51 µM
  TGI: > 100 µM
[12]
  GI50: 8.31 µM
  TGI: 38.4 µM
[13]
  GI50: < 0.0491 µM
[14]
  GI50: 0.511 µM
  TGI: > 41.7 µM
[15]
  GI50: 0.218 µM
  TGI: > 22.5 µM
[16]
  GI50: 0.315 µM
  TGI: > 40 µM
[17]
  GI50: > 20.7 µM
  TGI: > 100 µM
[18]
  GI50: 0.294 µM
  TGI: 1.61 µM
[19]
  GI50: > 96.1 µM
  TGI: > 100 µM
[20]
  GI50: 18.6 µM
  TGI: > 100 µM
[21]
  GI50: 1.08 µM
  TGI: 57.9 µM
[22]
  GI50: 0.0315 µM
  TGI: 19.2 µM
[23]
  GI50: 1.02 µM
  TGI: > 35.8 µM
[24]
  GI50: 31.4 µM
  TGI: > 100 µM
[25]
  GI50: 1.4 µM
  TGI: > 100 µM
[26]
  TGI: > 100 µM
[27]
  GI50: > 100 µM
  TGI: > 100 µM
[28]
  TGI: > 86.1 µM
[29]
  GI50: 15.2 µM
  TGI: > 60.2 µM
[30]
  GI50: 6.08 µM
  TGI: > 77 µM
[31]
  GI50: > 29 µM
  TGI: > 100 µM
[32]
  GI50: > 38.2 µM
  TGI: > 100 µM
[33]
  GI50: 6.17 µM
  TGI: > 52.6 µM
[34]
  GI50: 0.297 µM
  TGI: > 33.8 µM
[35]
  GI50: 12.6 µM
  TGI: > 100 µM
[36]
  GI50: 46.2 µM
  TGI: > 100 µM
[37]
  GI50: 9.3 µM
  TGI: > 100 µM
[38]
  TGI: 1.59 µM
[39]
  TGI: 19.3 µM
[40]
  TGI: > 100 µM
[41]
  GI50: > 84.9 µM
  TGI: > 100 µM
[42]
  GI50: 0.747 µM
  TGI: 44.3 µM
[43]
  GI50: 2.64 µM
  TGI: > 100 µM
[44]
  TGI: > 21.5 µM
[45]
  GI50: 26.7 µM
  TGI: > 100 µM
[46]
  GI50: 0.799 µM
  TGI: > 100 µM
[47]
  GI50: 2.32 µM
  TGI: > 100 µM
[48]
  GI50: 0.137 µM
  TGI: > 100 µM
[49]
  GI50: 15 µM
  TGI: 87.1 µM
[50]
  GI50: 27.1 µM
  TGI: > 100 µM
[51]
  GI50: 3.5 µM
  TGI: > 100 µM
[52]
  TGI: > 73.4 µM
[53]
  GI50: 0.157 µM
  TGI: > 100 µM
[54]
  TGI: > 57.9 µM
[55]
  TGI: > 32.1 µM
[56]
  GI50: 2.86 µM
  TGI: > 100 µM
